# Data published in US6436344B1, “Method of inactivating pathogens” (American National Red Cross, priority 1999, dated 2002).
# Where “and” joins values, the source holds several entries; their conditions need not be identical. Equal entries are not always repeated. Where two headings read alike, the source gives them in different places.
# Tests used:
# [1] = system: porcine parvovirus (PPV); assay: Porcine parvovirus inactivation by CAA, TCID50 titration on PK-13 cells (Example 3); assay type: cell-based, PPV strain NADL-2
# Description: An aqueous solution of chloroacetaldehyde (Aldrich Chemical, Milwaukee, Wis., Product 31,727-6, Lot KS02106MR, 50% in water) was diluted to the desired mM concentrations (0.5, 1, 2 and 5 mM) in 0.05 M sodium acetate buffer, pH 5.5. The 2 mM and 5 mM CAA samples were also prepared in 2.5% IgG solution, buffered at pH 5.5 with sodium acetate. Positive hold controls contained 0.05 M sodium acetate buffer, pH 5.5, or acetate-buffered 2.5% IgG without CAA. Positive controls and test samples were spiked 1:40 with porcine parvovirus (ATCC VR-742, PPV strain NADL-2). Aliquots were removed for immediate viral assay and the remaining samples were incubated at 37° C. for 4, 7 and 22.5 hours and then assayed to determine viral titers.
# (§1) Viral assays were performed by the TCID50 method as described by Miekka et al, HEMOPHILIA 4, 401-408 (1998). Target porcine kidney cells, PK-13 (ATCC CRC-6490), were seeded into 96-well microtiter plates and grown to 50-70% confluence. Five-fold serial dilutions (200 μL) of samples were prepared in cell culture medium and added to four wells each. Plates were incubated for 7 days at 37° C. in humidified 5% carbon dioxide. Cell layers were analyzed for cytopathic effect, and log10 viral titers were calculated by the method of Kärber, ARCH. Exp. PATHOL. PHARMAKOL., 162, 480-483 (1931). The average PPV reduction rate (log10/hour) was computed by regression analysis of the viral titers at each of the time points tested. Viral titers that had decreased to the assay limit were excluded from this calculation.
# [2] = system: pseudorabies virus (PRV); assay type: cell-based; conditions: for Pseudorabies Virus Av. rate / Pseudorabies Virus Reduction Factor: pH 5.5, 4 hours at 37° C.
# [3] = molecular target: T1, human coagulation Factor VIII (Homo sapiens, UniProt P00451); assay: Preservation of Factor VIII clotting activity, one-stage APTT (Example 5); assay type: biochemical; conditions: for FVIII u/mL after 37° C. incubation, 3 hours: 3 hours at 37° C.
# T1 construct: The CFVIII product tested was ‘Antihemophilic Factor, Human, Method M, Solvent and Detergent Treated’ (American Red Cross); tissue American Red Cross; host or cells: human plasma (own knowledge: Method M is a plasma-derived, monoclonal-antibody-purified concentrate)
# T1 sequence (P00451 20-1667 limits assumed): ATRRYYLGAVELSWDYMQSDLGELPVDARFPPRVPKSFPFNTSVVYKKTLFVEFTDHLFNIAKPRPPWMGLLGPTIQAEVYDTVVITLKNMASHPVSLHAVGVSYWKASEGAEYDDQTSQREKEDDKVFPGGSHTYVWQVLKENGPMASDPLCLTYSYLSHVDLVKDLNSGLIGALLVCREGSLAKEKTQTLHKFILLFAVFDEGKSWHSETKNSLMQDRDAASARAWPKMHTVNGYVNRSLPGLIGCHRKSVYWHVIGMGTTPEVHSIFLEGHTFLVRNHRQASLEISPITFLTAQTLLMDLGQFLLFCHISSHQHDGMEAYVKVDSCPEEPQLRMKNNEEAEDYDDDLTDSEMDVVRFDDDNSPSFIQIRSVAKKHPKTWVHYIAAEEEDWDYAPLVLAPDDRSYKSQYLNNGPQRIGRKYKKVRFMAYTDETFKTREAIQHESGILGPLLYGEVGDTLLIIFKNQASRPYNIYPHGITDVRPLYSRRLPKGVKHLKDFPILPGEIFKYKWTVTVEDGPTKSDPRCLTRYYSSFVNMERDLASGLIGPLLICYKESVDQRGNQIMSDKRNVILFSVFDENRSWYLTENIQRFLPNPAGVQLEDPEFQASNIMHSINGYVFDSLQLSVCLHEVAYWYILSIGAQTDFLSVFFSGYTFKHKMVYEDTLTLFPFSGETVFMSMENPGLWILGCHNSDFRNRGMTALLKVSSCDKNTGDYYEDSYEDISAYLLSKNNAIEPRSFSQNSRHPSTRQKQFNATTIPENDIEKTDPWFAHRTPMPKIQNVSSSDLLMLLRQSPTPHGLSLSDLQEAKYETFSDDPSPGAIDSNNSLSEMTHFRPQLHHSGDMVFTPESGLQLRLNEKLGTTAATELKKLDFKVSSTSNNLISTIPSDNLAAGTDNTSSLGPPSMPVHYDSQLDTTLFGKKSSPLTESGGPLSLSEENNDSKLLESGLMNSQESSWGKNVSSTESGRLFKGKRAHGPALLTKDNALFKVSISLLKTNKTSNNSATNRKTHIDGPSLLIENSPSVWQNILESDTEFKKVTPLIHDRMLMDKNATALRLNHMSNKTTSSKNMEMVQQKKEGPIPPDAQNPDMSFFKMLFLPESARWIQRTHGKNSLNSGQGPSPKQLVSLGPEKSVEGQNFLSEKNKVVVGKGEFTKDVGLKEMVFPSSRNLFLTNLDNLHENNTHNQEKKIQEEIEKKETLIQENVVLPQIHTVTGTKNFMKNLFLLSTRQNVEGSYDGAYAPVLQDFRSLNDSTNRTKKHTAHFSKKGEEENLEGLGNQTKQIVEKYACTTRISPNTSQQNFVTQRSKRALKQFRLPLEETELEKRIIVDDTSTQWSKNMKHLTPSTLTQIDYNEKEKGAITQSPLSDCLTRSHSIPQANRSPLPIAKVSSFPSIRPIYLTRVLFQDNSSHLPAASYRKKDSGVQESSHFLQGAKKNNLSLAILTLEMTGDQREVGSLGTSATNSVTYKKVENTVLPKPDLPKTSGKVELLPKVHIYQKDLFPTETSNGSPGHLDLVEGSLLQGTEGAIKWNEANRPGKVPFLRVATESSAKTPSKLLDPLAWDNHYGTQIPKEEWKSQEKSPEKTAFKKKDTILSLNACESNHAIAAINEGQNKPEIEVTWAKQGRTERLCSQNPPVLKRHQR
# T1 sequence (P00451 1668-2351 limits assumed): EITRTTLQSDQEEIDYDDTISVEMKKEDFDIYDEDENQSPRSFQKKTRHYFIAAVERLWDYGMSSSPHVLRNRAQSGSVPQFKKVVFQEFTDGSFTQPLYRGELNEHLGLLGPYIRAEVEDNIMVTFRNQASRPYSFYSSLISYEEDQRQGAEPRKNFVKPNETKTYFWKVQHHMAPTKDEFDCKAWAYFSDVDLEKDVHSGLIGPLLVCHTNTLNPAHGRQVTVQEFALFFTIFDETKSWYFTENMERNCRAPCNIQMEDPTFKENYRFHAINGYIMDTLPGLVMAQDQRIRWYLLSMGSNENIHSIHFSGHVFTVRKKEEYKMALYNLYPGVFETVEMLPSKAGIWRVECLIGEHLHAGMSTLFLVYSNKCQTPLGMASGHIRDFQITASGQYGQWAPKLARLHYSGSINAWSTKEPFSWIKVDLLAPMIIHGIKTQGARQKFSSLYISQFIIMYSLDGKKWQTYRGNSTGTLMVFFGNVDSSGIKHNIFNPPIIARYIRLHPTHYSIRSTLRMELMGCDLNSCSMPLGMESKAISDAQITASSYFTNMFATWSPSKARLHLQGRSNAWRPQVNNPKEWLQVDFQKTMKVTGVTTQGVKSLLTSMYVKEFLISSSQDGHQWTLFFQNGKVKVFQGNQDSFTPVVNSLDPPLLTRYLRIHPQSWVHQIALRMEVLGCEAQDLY
# [4] = system: porcine parvovirus (PPV); assay: Inactivation of PPV by CAA in the presence of Factor VIII (Example 6); assay type: cell-based
# Description: as §1
# A stock solution of 100 mM CAA in water was neutralized to pH 7.0 and was added to CFVIII to give final CAA concentrations of 3 mM and 6 mM and final CFVIII concentration of 100 clotting units/mL. All samples were buffered at pH 5.5 with 0.02 M sodium acetate. PPV was spiked into the samples at 1:40 ratio. The samples were incubated for 4 hours at 37° C. The positive hold controls were acetate buffer or Factor VIII, spiked with PPV and incubated 4 hours at 37° C. Viral assays and cell culture techniques were performed as described in EXAMPLE 3. Viral reduction factors were calculated as the difference between the log10 titers of the non-incubated and 4-hour incubated samples.
# [5] = molecular target: T2, human coagulation Factor IX (Homo sapiens, UniProt P00740); assay: Preservation of Factor IX clotting activity, one-stage APTT (Example 7); assay type: biochemical; conditions: 0.01 M calcium chloride, pH 6.2
# T2 construct: highly-purified human coagulation Factor IX, a labile plasma clotting factor; from tissue
# T2 sequence (P00740 47-461): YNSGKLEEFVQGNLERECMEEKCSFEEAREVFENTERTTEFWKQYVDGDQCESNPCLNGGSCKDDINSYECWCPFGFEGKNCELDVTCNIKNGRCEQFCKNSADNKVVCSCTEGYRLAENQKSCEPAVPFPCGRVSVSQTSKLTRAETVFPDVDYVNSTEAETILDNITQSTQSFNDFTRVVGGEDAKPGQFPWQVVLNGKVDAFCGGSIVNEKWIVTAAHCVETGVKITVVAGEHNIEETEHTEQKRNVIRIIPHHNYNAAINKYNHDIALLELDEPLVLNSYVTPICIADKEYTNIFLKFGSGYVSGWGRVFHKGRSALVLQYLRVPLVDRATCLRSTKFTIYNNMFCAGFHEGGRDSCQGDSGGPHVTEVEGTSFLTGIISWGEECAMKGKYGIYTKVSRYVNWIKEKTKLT
# [6] = system: porcine parvovirus (PPV); assay: Porcine parvovirus inactivation by IAA, TCID50 titration on PK 15 cells (Example 2); assay type: cell-based, strain PPV 893/76; conditions: for PPV Reduction Factor: 4 hours
# Description: RPC-purified IAA was diluted to the desired μM concentrations in water or in 5% IgG solution (>98% pure, KABI, Stockholm, Sweden), and the pH was adjusted to 5.00 with 0.4 M sodium phosphate. […] The samples were then gel filtered through sterile PD 10 columns containing Sephadex G-25 (Amersham Pharmacia Biotech Uppsala, Sweden) equilibrated with 25 ml of cell culture medium. A sample (2 ml) was layered onto the column and the fall-through was discarded. Then 3.2 ml cell culture medium (3.2 ml) was added to the column and the first 0.5 mL of eluate was discarded. The remaining eluate was collected for viral assay. The resulting diluting factor was 1.48. Materials for viral assays were as follows. […] The cell supernatant was clarified by low speed centrifugation and filtered through 0.45 μm and 0.2 μm filters before storing at -70° C. in aliquots. The target cells for titration of PPV were porcine kidney cell line PK 15 (ATCC CCL-33). The cells were cultivated according to conventional cell culture procedures in EMEM with non-essential amino acids (SVA, Uppsala, Sweden), supplemented with 120 μg/ml of penicillin G, 100 μg/ml of streptomycin sulfate and 5% fetal calf serum. Cells were seeded in 96 well microtiter plates (Nunc). Viral assays were performed by a TCID50 method. The original virus stock (positive control sample) and the test samples were serially diluted ten-fold in cell culture medium shortly after sampling. Aliquots (50 μl) of each dilution were added to eight wells of the 96-well microtiter plates. […] After incubation for 7 days at 37° C. in a humidified atmosphere of 5% CO2, the cells were rinsed in physiological saline and fixed in 80% acetone for 30 minutes at -20° C., after which the fixation fluid was removed and the plates were dried at 37° C. Virus infected cells were visualized by an immunoperoxidase method (Jensen […]. 22 (1981) 85-98; […]., RECENT ADVANCES IN VIRUS DIAGNOSTICS, McNutly and […]. (1984) 37-46; Saunders G. C., Am. J. VET. RES. 38 (1977) 21-25). […] The cells were then washed twice for five minutes with wash fluid and once with physiological saline. Peroxidase-conjugated rabbit anti-mouse IgG P 2060 (Dakopatts, Denmark) was added to the cells. […] Wells with viral foci were counted using an inverted microscope and the tissue culture infectious dose giving a 50% end point (TCID50) was calculated for each sample. […] 10^R=(V'×10^a')/(V''×10^a'')
# [7] = Effect of pH 12, heat and thiosulfate on iodoacetaldehyde, GC-MS and NMR (Example 8); assay type: physicochemical
# [8] = Relative amount of IAA and its hydrated form in water by NMR (Example 1C); assay type: physicochemical; conditions: water solution, NMR estimate, 40° C.
# Description: One-dimensional ^1H-NMR spectra were recorded on a Bruker DRX 500 spectrometer at 40° C. The signal for TSP was used as internal reference (δH=0.0 ppm). A sample was prepared by adding 50 μl of the solution purified by reverse phase chromatography (RPC) to 650 μl D2O and subsequently transferring the diluted sample to a 5 mm NMR tube. For the quantitative measurement, a solution of Sodium Trimethyl Silyl Propionic acid (TSP, 0.991 mg/ml) was prepared; and 10 μl of that solution was added to the sample. By comparing the integral of the methyl groups in TSP with the integral of the CH2-group in hydrated IAA, an estimate of the IAA concentration in the sample could be made. Iodoacetaldehyde is in equilibrium with its hydrated form in a water solution. An estimate based on NMR is that the hydrated form accounts for approximately 90% of the sample, and the aldehyde form approximately 10%. This equilibrium should be taken into account when calculating concentration of IAA in aqueous media.
# [9] = molecular target: T2, human coagulation Factor IX; conditions: treatment with molecular iodine; cited from earlier work
# [10] = 5 mM CAA, incubation for 4 hours
# [11] = CAA 3 mM, Factor VIII (AHF-M) 100 clotting units/mL, pH 5.5, 4 hours at 37° C.
# [12] = CAA 3 mM, buffer pH 5.5, 4 hours at 37° C.
# [13] = CAA 6 mM, Factor VIII (AHF-M) 100 clotting units/mL, pH 5.5, 4 hours at 37° C.
# [14] = CAA 6 mM, buffer pH 5.5, 4 hours at 37° C.
# [15] = CAA 3 and 6 mM, with and without Factor VIII, 4 hours
compound,measurement,setting,value
"O=CCCl [CAA, Chloroacetaldehyde]",PPV inactivation rate,[1]; 2 mM CAA,~0.6 log10/hour
same,porcine parvovirus inactivated,[1]; [10],3.2 -4 log10
same,porcine parvovirus inactivated,[1]; 4-hour treatment with 5 mM CAA,≥ 3.6 logs
same,Average PPV Reduction,"[1]; CAA 0.5 mM (total), buffer, pH 5.40, 37° C.",0.16 Log10/hour
same,Average PPV Reduction,"[1]; CAA 1 mM (total), buffer, pH 5.40, 37° C.",0.26 Log10/hour
same,Average PPV Reduction,"[1]; CAA 2 mM (total), 2.5% IgG, pH 5.36, 37° C.",0.61 Log10/hour
same,Average PPV Reduction,"[1]; CAA 2 mM (total), buffer, pH 5.50, 37° C.",0.48 Log10/hour
same,Average PPV Reduction,"[1]; CAA 5 mM (total), 2.5% IgG, pH 5.50, 37° C.",≧0.79 Log10/hour
same,concentration effective at inactivating pathogens (as low as),[1]; aqueous solutions of chloroacetaldehyde,about 1.0 mM
same,Pseudorabies Virus Av. rate,[2]; 2 mM,0.66 log10/hour
same,Pseudorabies Virus Reduction Factor,[2]; 2 mM,2.10 log10/4 hours
same,pseudorabies virus inactivated,[2]; [10],≥ 3.2 log10
same,Pseudorabies Virus Av. rate,[2]; 5 mM,≧0.79 log10/hour
same,Pseudorabies Virus Reduction Factor,[2]; 5 mM,≧3.15 log10/4 hours
same,"FVIII u/mL after 37° C. incubation, 0 hour",[3]; CAA 4.2 mM,121 u/mL and 95 u/mL
same,"FVIII u/mL after 37° C. incubation, 0 hour",[3]; CAA 8.5 mM,88 u/mL and 109 u/mL
same,"FVIII u/mL after 37° C. incubation, 3 hours",[3]; CAA 8.5 mM,105 u/mL and 117 u/mL
same,"FVIII u/mL after 37° C. incubation, 0 hour",[3]; CAA 12.7 mM,89 u/mL and 106 u/mL
same,"FVIII u/mL after 37° C. incubation, 3 hours",[3]; CAA 12.7 mM,91 u/mL and 108 u/mL
same,PPV Average rate,[4]; [11],≧0.61 Log10/hour
same,PPV Reduction Factor,[4]; [11],≧2.44 Log10/4 hours
same,PPV Average rate,[4]; [12],≧0.57 Log10/hour
same,PPV Reduction Factor,[4]; [12],≧2.27 Log10/4 hours
same,PPV Average rate,[4]; [13],≧0.52 Log10/hour
same,PPV Reduction Factor,[4]; [13],≧2.09 Log10/4 hours
same,PPV Average rate,[4]; [14],≧0.43 Log10/hour
same,PPV Reduction Factor,[4]; [14],≧1.75 Log10/4 hours
same,PPV reduction factors (limited by assay sensitivity),[4]; [15],≥ 2 log10/4 hours
same,PPV reduction rate (limited by assay sensitivity),[4]; [15],≥ 0.5 log10/hour
same,% of initial clotting activity remaining after 37° C. incubation,"[5]; CFIX-M + 1 mM CAA, 0 hour",95.2%
same,% of initial clotting activity remaining after 37° C. incubation,"[5]; CFIX-M + 1 mM CAA, 4 hour",93.9%
same,% of initial clotting activity remaining after 37° C. incubation,"[5]; CFIX-M + 1 mM CAA, 20 hour",100.3%
same,% of initial clotting activity remaining after 37° C. incubation,"[5]; CFIX-M + 5 mM CAA, 0 hour",97.7%
same,% of initial clotting activity remaining after 37° C. incubation,"[5]; CFIX-M + 5 mM CAA, 4 hour",100.6%
same,% of initial clotting activity remaining after 37° C. incubation,"[5]; CFIX-M + 5 mM CAA, 20 hour",89.1%
"O=CCI [IAA, Iodoacetaldehyde]",potency relative to CAA (PPV inactivation),[6]; 180 μM IAA v. 2 mM CAA at the same rate,over 10 times
same,PPV Reduction Factor,"[6]; IAA 36 μM (hydrated form), 5% IgG, pH 4.64, 37° C.",≦0.7 Log10/4 hours
same,PPV Reduction Factor,"[6]; IAA 36 μM (hydrated form), buffer, pH 4.96, 37° C.",0.8 Log10/4 hours
same,PPV Reduction Factor,"[6]; IAA 45 μM (hydrated form), 5% IgG, pH 4.64, 37° C.",0.9 Log10/4 hours
same,PPV Reduction Factor,"[6]; IAA 45 μM (hydrated form), buffer, pH 4.96, 37° C.",1.1 Log10/4 hours
same,PPV Reduction Factor,"[6]; IAA 60 μM (hydrated form), 5% IgG, pH 4.64, 37° C.",1.2 Log10/4 hours
same,PPV Reduction Factor,"[6]; IAA 60 μM (hydrated form), buffer, pH 4.96, 37° C.",1.1 Log10/4 hours
same,PPV Reduction Factor,"[6]; IAA 90 μM (hydrated form), 5% IgG, pH 4.62, 37° C.",1.4 Log10/4 hours
same,PPV Reduction Factor,"[6]; IAA 90 μM (hydrated form), buffer, pH 4.95, 37° C.",1.7 Log10/4 hours
same,PPV inactivation rate,[6]; IAA 180 μM,~0.6 log10/hour
same,PPV Reduction Factor,"[6]; IAA 180 μM (hydrated form), 5% IgG, pH 4.61, 37° C.",2.5 Log10/4 hours
same,PPV Reduction Factor,"[6]; IAA 180 μM (hydrated form), buffer, pH 4.93, 37° C.",2.7 Log10/4 hours
same,PPV Reduction Factor,"[6]; IAA 600 μM (hydrated form), 5% IgG, pH 4.56, 37° C.",≧4.7 Log10/4 hours
same,PPV Reduction Factor,"[6]; IAA 600 μM (hydrated form), buffer, pH 4.84, 37° C.",≧4.7 Log10/4 hours
same,"concentration effective at inactivating pathogens, e.g., porcine parvovirus (as low as)",[6]; IAA hydrate,50 µM
same,"Effect on Iodoacetaldehyde, Change",[7]; 80° C. (20 hours),Degraded
same,"Effect on Iodoacetaldehyde, Change","[7]; Sodium thiosulfate, 2-20 mM",Degraded
same,"Effect on Iodoacetaldehyde, Change",[7]; pH 12 (0.5 hour),Degraded
same,"aldehyde form, share of the sample",[8],approximately 10%
same,"hydrated form, share of the sample",[8],approximately 90%
II [molecular iodine],effect on Factor IX,[9],completely inactivate
